± gives the expanded uncertainty stated by the source.
Assay: xn = mol fraction of the nth substance listed
Details: Liquid, Vibrating tube method, x1 = 1

## CCCO [propan-1-ol] + Cc1ccccc1
293.15 K, 100 kPa
  mass density: 803.5 ± 1 kg/m3
293.15 K, 5000 kPa
  mass density: 807.3 ± 1 kg/m3
293.15 K, 10000 kPa
  mass density: 810.9 ± 1 kg/m3
293.15 K, 15000 kPa
  mass density: 814.3 ± 1 kg/m3
293.15 K, 20000 kPa
  mass density: 817.7 ± 1 kg/m3
293.15 K, 25000 kPa
  mass density: 821 ± 1 kg/m3
293.15 K, 30000 kPa
  mass density: 824 ± 1 kg/m3
293.15 K, 35000 kPa
  mass density: 827 ± 1.1 kg/m3
293.15 K, 40000 kPa
  mass density: 829.9 ± 1.1 kg/m3
293.15 K, 45000 kPa
  mass density: 832.7 ± 1.1 kg/m3
293.15 K, 50000 kPa
  mass density: 835.4 ± 1.1 kg/m3
293.15 K, 55000 kPa
  mass density: 838.1 ± 1.1 kg/m3
293.15 K, 60000 kPa
  mass density: 840.7 ± 1.1 kg/m3
293.15 K, 65000 kPa
  mass density: 843.2 ± 1.1 kg/m3
303.15 K, 100 kPa
  mass density: 795.2 ± 1 kg/m3
303.15 K, 5000 kPa
  mass density: 799.2 ± 1 kg/m3
303.15 K, 10000 kPa
  mass density: 802.9 ± 1 kg/m3
303.15 K, 15000 kPa
  mass density: 806.7 ± 1 kg/m3
303.15 K, 20000 kPa
  mass density: 810.1 ± 1 kg/m3
303.15 K, 25000 kPa
  mass density: 813.6 ± 1 kg/m3
303.15 K, 30000 kPa
  mass density: 816.7 ± 1 kg/m3
303.15 K, 35000 kPa
  mass density: 819.8 ± 1.1 kg/m3
303.15 K, 40000 kPa
  mass density: 822.9 ± 1.1 kg/m3
303.15 K, 45000 kPa
  mass density: 825.8 ± 1.1 kg/m3
303.15 K, 50000 kPa
  mass density: 828.8 ± 1.1 kg/m3
303.15 K, 55000 kPa
  mass density: 831.6 ± 1.1 kg/m3
303.15 K, 60000 kPa
  mass density: 834.2 ± 1.1 kg/m3
303.15 K, 65000 kPa
  mass density: 837 ± 1.1 kg/m3
313.15 K, 100 kPa
  mass density: 787.6 ± 1 kg/m3
313.15 K, 5000 kPa
  mass density: 791.9 ± 1 kg/m3
313.15 K, 10000 kPa
  mass density: 795.9 ± 1 kg/m3
313.15 K, 15000 kPa
  mass density: 799.7 ± 1 kg/m3
313.15 K, 20000 kPa
  mass density: 803.3 ± 1 kg/m3
313.15 K, 25000 kPa
  mass density: 806.8 ± 1 kg/m3
313.15 K, 30000 kPa
  mass density: 810.2 ± 1 kg/m3
313.15 K, 35000 kPa
  mass density: 813.5 ± 1.1 kg/m3
313.15 K, 40000 kPa
  mass density: 816.6 ± 1.1 kg/m3
313.15 K, 45000 kPa
  mass density: 819.7 ± 1.1 kg/m3
313.15 K, 50000 kPa
  mass density: 822.7 ± 1.1 kg/m3
313.15 K, 55000 kPa
  mass density: 825.5 ± 1.1 kg/m3
313.15 K, 60000 kPa
  mass density: 828.3 ± 1.1 kg/m3
313.15 K, 65000 kPa
  mass density: 831 ± 1.1 kg/m3
323.15 K, 100 kPa
  mass density: 779.3 ± 1 kg/m3
323.15 K, 5000 kPa
  mass density: 783.7 ± 1 kg/m3
323.15 K, 10000 kPa
  mass density: 788 ± 1 kg/m3
323.15 K, 15000 kPa
  mass density: 792 ± 1 kg/m3
323.15 K, 20000 kPa
  mass density: 795.8 ± 1 kg/m3
323.15 K, 25000 kPa
  mass density: 799.7 ± 1 kg/m3
323.15 K, 30000 kPa
  mass density: 803.2 ± 1.1 kg/m3
323.15 K, 35000 kPa
  mass density: 806.6 ± 1.1 kg/m3
323.15 K, 40000 kPa
  mass density: 809.9 ± 1.1 kg/m3
323.15 K, 45000 kPa
  mass density: 813 ± 1.1 kg/m3
323.15 K, 50000 kPa
  mass density: 816.1 ± 1.1 kg/m3
323.15 K, 55000 kPa
  mass density: 819 ± 1.1 kg/m3
323.15 K, 60000 kPa
  mass density: 821.8 ± 1.1 kg/m3
323.15 K, 65000 kPa
  mass density: 824.6 ± 1.1 kg/m3
333.15 K, 100 kPa
  mass density: 770.5 ± 1 kg/m3
333.15 K, 5000 kPa
  mass density: 775.4 ± 1 kg/m3
333.15 K, 10000 kPa
  mass density: 780 ± 1 kg/m3
333.15 K, 15000 kPa
  mass density: 784.3 ± 1 kg/m3
333.15 K, 20000 kPa
  mass density: 788.4 ± 1 kg/m3
333.15 K, 25000 kPa
  mass density: 792 ± 1 kg/m3
333.15 K, 30000 kPa
  mass density: 795.7 ± 1.1 kg/m3
333.15 K, 35000 kPa
  mass density: 799.2 ± 1.1 kg/m3
333.15 K, 40000 kPa
  mass density: 802.6 ± 1.1 kg/m3
333.15 K, 45000 kPa
  mass density: 805.9 ± 1.1 kg/m3
333.15 K, 50000 kPa
  mass density: 809.1 ± 1.1 kg/m3
333.15 K, 55000 kPa
  mass density: 812.3 ± 1.1 kg/m3
333.15 K, 60000 kPa
  mass density: 815.2 ± 1.1 kg/m3
333.15 K, 65000 kPa
  mass density: 818.1 ± 1.1 kg/m3
343.15 K, 100 kPa
  mass density: 761 ± 1 kg/m3
343.15 K, 5000 kPa
  mass density: 766 ± 1 kg/m3
343.15 K, 10000 kPa
  mass density: 770.7 ± 1 kg/m3
343.15 K, 15000 kPa
  mass density: 775.3 ± 1 kg/m3
343.15 K, 20000 kPa
  mass density: 779.6 ± 1 kg/m3
343.15 K, 25000 kPa
  mass density: 783.7 ± 1.1 kg/m3
343.15 K, 30000 kPa
  mass density: 787.6 ± 1.1 kg/m3
343.15 K, 35000 kPa
  mass density: 791.2 ± 1.1 kg/m3
343.15 K, 40000 kPa
  mass density: 794.7 ± 1.1 kg/m3
343.15 K, 45000 kPa
  mass density: 798.3 ± 1.1 kg/m3
343.15 K, 50000 kPa
  mass density: 801.6 ± 1.1 kg/m3
343.15 K, 55000 kPa
  mass density: 804.6 ± 1.1 kg/m3
343.15 K, 60000 kPa
  mass density: 807.7 ± 1.1 kg/m3
343.15 K, 65000 kPa
  mass density: 810.6 ± 1.1 kg/m3
353.15 K, 100 kPa
  mass density: 752.2 ± 1 kg/m3
353.15 K, 5000 kPa
  mass density: 757.6 ± 1 kg/m3
353.15 K, 10000 kPa
  mass density: 762.7 ± 1 kg/m3
353.15 K, 15000 kPa
  mass density: 767.6 ± 1 kg/m3
353.15 K, 20000 kPa
  mass density: 772.1 ± 1 kg/m3
353.15 K, 25000 kPa
  mass density: 776.3 ± 1.1 kg/m3
353.15 K, 30000 kPa
  mass density: 780.4 ± 1.1 kg/m3
353.15 K, 35000 kPa
  mass density: 784.1 ± 1.1 kg/m3
353.15 K, 40000 kPa
  mass density: 787.7 ± 1.1 kg/m3
353.15 K, 45000 kPa
  mass density: 791.8 ± 1.1 kg/m3
353.15 K, 50000 kPa
  mass density: 795.1 ± 1.1 kg/m3
353.15 K, 55000 kPa
  mass density: 798.5 ± 1.1 kg/m3
353.15 K, 60000 kPa
  mass density: 801.7 ± 1.1 kg/m3
353.15 K, 65000 kPa
  mass density: 805 ± 1.1 kg/m3

— the NIST ThermoML archive (doi:10.1016/j.fluid.2006.05.032)
